# In patent US10981891B2, “Antibacterial compounds and uses thereof” (priority 2016, dated 2021):
# Read-outs that look alike come from different tables or passages of the source.
# Tested on: M. tuberculosis H37Rv (ATCC 27294)
# Experiment: Microplate Alamar Blue assay (MABA), MIC against replicating M. tuberculosis H37Rv
# Format: cell-based
# Details: Mycobacterium tuberculosis, 168 h, read-out: M. tuberculosis MIC
# [1] = H37Rv, MABA, 7H12 media, 7 days at 37° C., MIC = lowest concentration reducing fluorescence by 90% relative to controls
smiles,measurement,setting,value
"COc1cc(C(O)(CCN(C)C)C(c2cccc(C)c2)c2cc3cc(Br)ccc3nc2OC)cc(OC)n1 (centres unmarked) [Example 1, 1-(6-Bromo-2-methoxyquinolin-3-yl)-2-(2,6-dimethoxypyridin-4-yl)-4-(dimethylamino)-1-(m-tolyl)butan-2-ol]",MIC,[1],< 0.02 µg/mL
"COc1nc2ccc(Br)cc2cc1C(c1ccccc1)C(O)(CCN(C)C)c1cccc2ccoc12 (centres unmarked) [Example 2, 2-(Benzofuran-7-yl)-1-(6-bromo-2-methoxyquinolin-3-yl)-4-(dimethylamino)-1-phenylbutan-2-ol]",MIC,[1],0.07 µg/mL
"COc1cc(C(c2cc3cc(Br)ccc3nc2OC)C(O)(CCN(C)C)c2cccc(F)c2)cnc1OC (centres unmarked) [Example 3, 1-(6-Bromo-2-methoxyquinolin-3-yl)-1-(5,6-dimethoxypyridin-3-yl)-4-(dimethylamino)-2-(3-fluorophenyl)butan-2-ol]",MIC,[1],0.47 µg/mL
"COc1nc2ccc(Br)cc2cc1C(c1ccnc(OC)c1OC)C(O)(CCN(C)C)c1cccc(C)c1 (centres unmarked) [Example 4, 1-(6-Bromo-2-methoxyquinolin-3-yl)-1-(2,3-dimethoxypyridin-4-yl)-4-(dimethylamino)-2-(m-tolyl)butan-2-ol]",MIC,[1],0.02 µg/mL
"COc1nc2ccc(Br)cc2cc1C(c1ccnc(OC)c1OC)C(O)(CCN(C)C)c1cc2ccccc2o1 (centres unmarked) [Example 7, 2-(Benzofuran-2-yl)-1-(6-bromo-2-methoxyquinolin-3-yl)-1-(2,3-dimethoxypyridin-4-yl)-4-(dimethylamino)butan-2-ol]",MIC,,0.03 µg/mL
"COc1nc2ccc(Br)cc2cc1C(c1ccnc(OC)c1OC)C(O)(CCN(C)C)c1ccc2occc2c1 (centres unmarked) [Example 10, 2-(Benzofuran-5-yl)-1-(6-bromo-2-methoxyquinolin-3-yl)-1-(2,3-dimethoxypyridin-4-yl)-4-(dimethylamino)butan-2-ol]",MIC,[1],0.03 µg/mL
"COc1cc(C(O)(CCN(C)C)C(c2ccc(C)s2)c2cc3cc(Br)ccc3nc2OC)cc(OC)n1 (centres unmarked) [Example 11, 1-(6-Bromo-2-methoxyquinolin-3-yl)-2-(2,6-dimethoxypyridin-4-yl)-4-(dimethylamino)-1-(5-methylthiophen-2-yl)butan-2-ol]",MIC,[1],< 0.02 µg/mL
"CCOc1cc(C(c2cc3cc(Br)ccc3nc2OC)C(O)(CCN(C)C)c2cccc3ccoc23)cc(OCC)n1 (centres unmarked) [Example 12, 2-(Benzofuran-7-yl)-1-(6-bromo-2-methoxyquinolin-3-yl)-1-(2,6-diethoxypyridin-4-yl)-4-(dimethylamino)butan-2-ol]",MIC,[1],< 0.01 µg/mL
"COc1nc2ccc(Br)cc2cc1C(c1ccccc1)C(O)(CCN(C)C)c1cccc2occc12 (centres unmarked) [Example 14, 2-(Benzofuran-4-yl)-1-(6-bromo-2-methoxyquinolin-3-yl)-4-(dimethylamino)-1-phenylbutan-2-ol]",MIC,[1],0.06 µg/mL
"COc1nc2ccc(Br)cc2cc1C(c1ccccc1)C(O)(CCN(C)C)c1cccc2ccsc12 (centres unmarked) [Example 15, 2-(Benzo[b]thiophen-7-yl)-1-(6-bromo-2-methoxyquinolin-3-yl)-4-(dimethylamino)-1-phenylbutan-2-ol]",MIC,,0.02 µg/mL
"COc1cc(C(O)(CCN(C)C)C(c2cc3cc(Br)ccc3nc2OC)c2cccc(OC)c2F)cc(OC(C)C)n1 (centres unmarked) [Example 16, 1-(6-Bromo-2-methoxyquinolin-3-yl)-4-(dimethylamino)-1-(2-fluoro-3-methoxyphenyl)-2-(2-isopropoxy-6-methoxypyridin-4-yl)butan-2-ol]",MIC,[1],< 0.02 µg/mL
"CCOc1cc(C(O)(CCN(C)C)C(c2cc3cc(Br)ccc3nc2OC)c2cccc(OC)c2F)cc(OC)n1 (centres unmarked) [Example 17, 1-(6-Bromo-2-methoxyquinolin-3-yl)-4-(dimethylamino)-2-(2-ethoxy-6-methoxypyridin-4-yl)-1-(2-fluoro-3-methoxyphenyl)butan-2-ol]",MIC,[1],< 0.01 µg/mL
"COc1cc(C(O)(CCN(C)C)C(c2cc3cc(Br)ccc3nc2OC)c2ccnc(OC)c2OC)cc(OC(C)C)n1 (centres unmarked) [Example 18, 1-(6-Bromo-2-methoxyquinolin-3-yl)-1-(2,3-dimethoxypyridin-4-yl)-4-(dimethylamino)-2-(2-isopropoxy-6-methoxypyridin-4-yl)butan-2-ol]",MIC,[1],< 0.01 µg/mL
"CCOc1cc(C(O)(CCN(C)C)C(c2cc3cc(Br)ccc3nc2OC)c2ccnc(OC)c2OC)cc(OC)n1 (centres unmarked) [Example 20, 1-(6-Bromo-2-methoxyquinolin-3-yl)-1-(2,3-dimethoxypyridin-4-yl)-4-(dimethylamino)-2-(2-ethoxy-6-methoxypyridin-4-yl)butan-2-ol]",MIC,[1],< 0.02 µg/mL
"COc1cc(C(c2cc3cc(Br)ccc3nc2OC)C(O)(CCN(C)C)c2cccc3ccoc23)cc(OC(C)C)n1 (centres unmarked) [Example 21, 2-(Benzofuran-7-yl)-1-(6-bromo-2-methoxyquinolin-3-yl)-4-(dimethylamino)-1-(2-isopropoxy-6-methoxypyridin-4-yl)butan-2-ol]",MIC,[1],< 0.02 µg/mL
"CCOc1cc(C(c2cc3cc(Br)ccc3nc2OC)C(O)(CCN(C)C)c2cccc3ccoc23)cc(OC)n1 (centres unmarked) [Example 22, 2-(Benzofuran-7-yl)-1-(6-bromo-2-methoxyquinolin-3-yl)-4-(dimethylamino)-1-(2-ethoxy-6-methoxypyridin-4-yl)butan-2-ol]",MIC,[1],< 0.02 µg/mL
"CCOc1cc(C(O)(CCN(C)C)C(c2cc3cc(Br)ccc3nc2OC)c2ccnc(OC)c2OC)cc(OC(C)C)n1 (centres unmarked) [Example 23, 1-(6-Bromo-2-methoxyquinolin-3-yl)-1-(2,3-dimethoxypyridin-4-yl)-4-(dimethylamino)-2-(2-ethoxy-6-isopropoxypyridin-4-yl)butan-2-ol]",MIC,[1],< 0.02 µg/mL
"CCOc1cc(C(O)(CCN(C)C)C(c2cc(OC)nc(OC)c2)c2cc3cc(Br)ccc3nc2OC)cc(OC(C)C)n1 (centres unmarked) [Example 24, 1-(6-Bromo-2-methoxyquinolin-3-yl)-1-(2,6-dimethoxypyridin-4-yl)-4-(dimethylamino)-2-(2-ethoxy-6-isopropoxypyridin-4-yl)butan-2-ol]",MIC,[1],< 0.02 µg/mL
"COc1cc(C(O)(CCN(C)C)C(c2cccc(C)c2)c2cc3cc(Br)ccc3nc2OC)cc(OC(C)C)n1 (centres unmarked) [Example 25, 1-(6-Bromo-2-methoxyquinolin-3-yl)-4-(dimethylamino)-2-(2-isopropoxy-6-methoxypyridin-4-yl)-1-(m-tolyl)butan-2-ol]",MIC,[1],0.01 µg/mL
"CCOc1cc(C(O)(CCN(C)C)C(c2cc3cc(Cl)ccc3nc2OC)c2cccc(OC)c2F)cc(OCC)n1 (centres unmarked) [Example 27, 1-(6-Chloro-2-methoxyquinolin-3-yl)-2-(2,6-diethoxypyridin-4-yl)-4-(dimethylamino)-1-(2-fluoro-3-methoxyphenyl)butan-2-ol]",MIC,[1],0.01 µg/mL
"CCCOc1cc(C(O)(CCN(C)C)C(c2cc3cc(Br)ccc3nc2OC)c2ccnc(OC)c2OC)cc(OC)n1 (centres unmarked) [Example 28, 1-(6-Bromo-2-methoxyquinolin-3-yl)-1-(2,3-dimethoxypyridin-4-yl)-4-(dimethylamino)-2-(2-methoxy-6-propoxypyridin-4-yl)butan-2-ol]",MIC,[1],0.01 µg/mL
"COc1cc(C(O)(CCN(C)C)C(c2cc3cc(Br)ccc3nc2OC)c2ccnc(OC)c2OC)cc(OC2CCC2)n1 (centres unmarked) [Example 30, 1-(6-Bromo-2-methoxyquinolin-3-yl)-2-(2-cyclobutoxy-6-methoxypyridin-4-yl)-1-(2,3-dimethoxypyridin-4-yl)-4-(dimethylamino)butan-2-ol]",MIC,[1],< 0.004 µg/mL
"CCOc1cc(C(O)(CCN(C)C)C(c2cccc(C)c2)c2cc3cc(Cl)ccc3nc2OC)cc(OCC)n1 (centres unmarked) [Example 32, 1-(6-Chloro-2-methoxyquinolin-3-yl)-2-(2,6-diethoxypyridin-4-yl)-4-(dimethylamino)-1-(m-tolyl)butan-2-ol]",MIC,[1],0.02 µg/mL
